Counter-ions that a name gives are not always drawn.
What was measured:
[1] = Metabolic stability in liver microsome (human); assay type: in vitro ADME, humans
Method: Objective: To determine the metabolic stability of test compounds in the liver microsomes of humans, CD-1 5 mice and SD rats (Corning Co., Ltd., Miaotong Biological Technology Co., Ltd., Miaotong Biological Technology Co., Ltd.).
Procedures: Firstly, eight 96-well plates were prepared, and named T0, T5, T10, T20, T30, T60, NCF60 and BLANK; except for BLANK (added with buffer at 10 μL/well), the plates were added with the solution of compounds at 10 μL/well. Prepared microsomes were added to the 7 plates (80 μL/well), except for the T0 10 plate. The NCF60 plate was added with the buffer at 10 μL/well, and incubated in a 37° C. water bath, and timing was started:
Prepared NADPH cofactor working solution was aliquoted into a 96-well shallow-well plate serving as a loading slot. Each plates was added with the solution to at 10 μL/well by a 96-channel pipette and incubated in a 37° C. water bath to start the reaction:
At each time point, termination solution (cold acetonitrile containing 100 ng/mL Tolbutamide and 100 ng/mL Labetalol as internal standard) was added at 300 μL/well to stop the reaction, and the mixture was mixed well; the mixture was centrifuged at 4000 rpm for 20 minutes to precipitate the protein; the supernatant was transferred at 100 μL/well to a new 96-well plate containing 300 μL/well of HPLC water with a 96-channel pipette, and the mixture was mixed well. […]

CYP1A2 = biological target: T1, CYP1A2 (Homo sapiens, UniProt P05177); experiment: Cytochrome P450 isoenzyme inhibition, CYP1A2; assay type: in vitro ADME; details: human liver microsomes; read-out: CYP enzyme inhibition (IC50) 1A2
T1 construct: tissue Corning Co., Ltd; host or cells: human liver microsomes
T1 sequence (P05177 1-516): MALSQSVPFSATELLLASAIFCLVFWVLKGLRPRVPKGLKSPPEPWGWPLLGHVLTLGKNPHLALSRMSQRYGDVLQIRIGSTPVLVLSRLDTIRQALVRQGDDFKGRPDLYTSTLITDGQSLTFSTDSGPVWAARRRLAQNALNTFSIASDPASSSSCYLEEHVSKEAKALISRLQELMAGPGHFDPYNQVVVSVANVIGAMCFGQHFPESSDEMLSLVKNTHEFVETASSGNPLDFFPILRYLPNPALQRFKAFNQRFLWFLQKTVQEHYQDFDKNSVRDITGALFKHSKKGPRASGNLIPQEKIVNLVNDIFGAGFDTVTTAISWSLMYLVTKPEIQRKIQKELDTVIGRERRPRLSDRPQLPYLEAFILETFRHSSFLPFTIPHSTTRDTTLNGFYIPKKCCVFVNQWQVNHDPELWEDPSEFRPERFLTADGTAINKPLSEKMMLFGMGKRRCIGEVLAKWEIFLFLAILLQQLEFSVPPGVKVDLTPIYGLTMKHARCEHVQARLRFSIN
From the text: (§1) Experimental objective: To determine the inhibitory effect of the test compound on the activity of human liver microsomal cytochrome P450 isoenzymes (CYP1A2, CYP2C9, CYP2C19, CYP2D6 and CYP3A4; Corning Co., Ltd.). […]

CYP2C9 = biological target: T2, CYP2C9 (Homo sapiens, UniProt P11712); experiment: Cytochrome P450 isoenzyme inhibition, CYP2C9; assay type: in vitro ADME; details: human liver microsomes; read-out: CYP enzyme inhibition (IC50) 2C9
T2 construct: tissue Corning Co., Ltd; host or cells: human liver microsomes
T2 sequence (P11712 whole entry): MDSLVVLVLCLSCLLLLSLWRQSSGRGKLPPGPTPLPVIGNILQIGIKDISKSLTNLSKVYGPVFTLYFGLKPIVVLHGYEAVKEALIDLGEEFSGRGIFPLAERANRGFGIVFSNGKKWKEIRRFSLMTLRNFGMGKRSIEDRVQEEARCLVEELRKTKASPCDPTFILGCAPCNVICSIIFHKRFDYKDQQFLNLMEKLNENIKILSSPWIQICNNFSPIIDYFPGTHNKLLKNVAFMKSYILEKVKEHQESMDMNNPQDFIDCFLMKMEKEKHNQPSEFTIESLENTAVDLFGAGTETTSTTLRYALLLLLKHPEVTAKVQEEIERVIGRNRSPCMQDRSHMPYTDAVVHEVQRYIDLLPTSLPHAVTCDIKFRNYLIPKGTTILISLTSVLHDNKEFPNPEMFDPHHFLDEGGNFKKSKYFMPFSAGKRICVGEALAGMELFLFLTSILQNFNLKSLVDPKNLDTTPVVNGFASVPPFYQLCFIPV
From the text: as §1

CYP2C19 = biological target: T3, CYP2C19 (Homo sapiens, UniProt P33261); experiment: Cytochrome P450 isoenzyme inhibition, CYP2C19; assay type: in vitro ADME; details: human liver microsomes; read-out: CYP enzyme inhibition (IC50) 2C19
T3 construct: tissue Corning Co., Ltd; host or cells: human liver microsomes
T3 sequence (P33261 whole entry): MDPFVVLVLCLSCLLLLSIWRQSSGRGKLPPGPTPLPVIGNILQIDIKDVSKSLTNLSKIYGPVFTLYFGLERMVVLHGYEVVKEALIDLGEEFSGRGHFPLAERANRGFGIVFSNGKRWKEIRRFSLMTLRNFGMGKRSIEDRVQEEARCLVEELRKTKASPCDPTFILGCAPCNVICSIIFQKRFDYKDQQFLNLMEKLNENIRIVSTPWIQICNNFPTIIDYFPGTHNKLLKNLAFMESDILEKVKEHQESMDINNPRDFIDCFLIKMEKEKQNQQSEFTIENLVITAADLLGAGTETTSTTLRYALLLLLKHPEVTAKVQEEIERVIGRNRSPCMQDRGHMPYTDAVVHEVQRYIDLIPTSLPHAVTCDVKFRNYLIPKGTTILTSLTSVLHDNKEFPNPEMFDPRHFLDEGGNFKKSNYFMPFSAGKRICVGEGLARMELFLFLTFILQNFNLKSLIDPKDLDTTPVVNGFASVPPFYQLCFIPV
From the text: as §1

Stability in liver microsomes [1]: 43
IC50 (CYP1A2): 45.1 µM
IC50 (CYP2C9): 8.4 µM
IC50 (CYP2C19): 3.9 µM
Compound: CC/C(=C(/c1ccc(OCCNC/C=C/C(=O)N(C)C)nc1)c1[nH]c2ccccc2c1Cl)c1ccccc1 [Compound 3 monohydrochloride]
